Source: patent US11427869B2, “T cell balance gene expression, compositions of matters and methods of use thereof” (THE BROAD INSTITUTE, INC., priority 2015, dated 2022)

Tested on: Th17 cells
Experiment: Flow cytometry and intracellular cytokine staining of T cells
Format: cell-based, mouse
Description: WT, CD5L−/− and Rorγt−/− Th17 cells were differentiated with TGF-1+IL-6 for 96h. […] Three independent experiments were performed. […] (FIG. 18E) Naïve WT T cells were activated without polarizing cytokines (Th0) and infected with retrovirus expressing Rorγt in the presence of control-RV or CD5L-RV with or without FF-MAS (5 uM) as a source of Rorγt ligand. Each dot represents an independent infection. (FIG. 18F) WT or CD5L−/− naïve cells were differentiated with TGF-β1+IL-6. At 48h, cells were replated in fresh media with either control or FF-MAS (5 uM) as a source of Rorγt ligand. Cells were harvested for FACS analysis 72h later.
T cell differentiation culture. Naïve CD4+CD44−CD62L+CD25− T cells or Effector memory CD4+CD44+CD62L− were sorted using BD FACSAria sorter and activated with plate-bound anti-CD3 and anti-CD28 antibodies (both at 2 μg/ml) in the presence of cytokines at a concentration of 2.5×10^5 cells/ml. For Th17 differentiation: 2 ng/ml of rhTGFβ1, 2 ng/ml of rhTGFβ3, 25 ng/ml rmIL-6, 20 ng/ml rmIL-18 (all from Miltenyi Biotec) and 20 ng/ml rmIL-23 (R & D systems) were used at various combinations as specified in figures. For Th1 differentiation, 20 ng/ml rmIL-12 (R & D systems); for Th2 differentiation 20 ng/ml rmIL-4 (Miltenyi Biotec); for iTreg differentiation, 2.5 ng/ml of rhTGFβ1 were used (Miltenyi Biotec). For differentiation experiments, cells were harvested at 48 hours. For restimulation experiments, cells were differentiated for 48 hours and resuspended in fresh media with no additional cytokines for 48-72 hours. Cells were re-stimulated with PMA/ionomycin for four hours before analysis for cytokines by intracellular cytokine staining. For experiments with exogenous fatty acid, fatty acids were purchased and resuspended first with serum-free media containing BSA prior being added to culture.
Flow cytometry and intracellular cytokine staining. Sorted naïve T cells were stimulated with phorbol 12-myristate 13-acetate (PMA) (50 ng/ml, Sigma-aldrich), ionomycin (1 μg/ml, Sigma-aldrich) and a protein transport inhibitor containing monensin (Golgistop) (BD Biosciences) for 4 h before detection by staining with antibodies.

With `CCCCC/C=C\C/C=C\C/C=C\C/C=C\CCCC(=O)O` [PUFA, arachidonic acid] the “percentage of IL-17+CD4+ T cells” value (CD5L−/− Th17 cells differentiated with TGF-β1+IL-6) was “reduced percentage of IL-17+CD4+ T cells” and the “IL-17 and IL-23R expression” value (WT Th17 cells differentiated with TGF-β1+IL-6 and expanded using IL-23 with fatty acid) was “suppressed IL-17 and IL-23R expression”.
